Results taken from ChEMBL document CHEMBL1201862, “PubChem BioAssay data set” (2004).
Values joined by “and” are separate entries in the source; they are usually repeats but may differ in a detail not shown here. Equal values may be shown once.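 In this assay, cells in 96-well plates receive the compound at five concentrations for 48 hours. Endpoints are linearly interpolated between the surrounding concentrations. Here, GI50 denotes the concentration required for 50% inhibition of growth.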 Active and inactive are the calls of the source. Rule as the data show it: active = GI50 up to about 1.1 µM and inactive = higher.

Columns and labels:
Experiment in all cases: NCI-60 cell line screen, 48 h
[1] = system: SK-MEL-28
[2] = system: HT-29
[3] = system: OVCAR-3
[4] = system: NCI/ADR-RES
[5] = system: K562
[6] = system: HOP-62
[7] = system: Hs-578T
[8] = system: HCT-116
[9] = system: TK-10
[10] = system: UACC-62
[11] = system: OVCAR-4
[12] = system: NCI-H23
[13] = system: 786-0
[14] = system: PC-3
[15] = system: NCI-H522
[16] = system: KM12
[17] = system: SF-295
[18] = system: MCF7
[19] = system: EKVX

Measured: GI50

CCOC(=O)c1sc2nc(SC)nc3c2c1NCN3c1ccccc1Cl
inactive: [1] 55.2 µM | [2] 72.1 µM | [3] 84.5 µM | [4] 40.2 µM | [5] > 100 µM | [6] 40.9 µM | [7] 35.4 µM | [8] 31.8 µM | [9] 37.8 µM | [10] 37.4 µM | [11] 38.5 µM | [12] 42.2 µM | [13] 24.3 µM | [14] 29.4 µM | [15] 26.5 µM | [16] > 100 µM | [17] 52.6 µM

COC(=O)C1(C(=O)OC)CC2=C(S(=O)(=O)c3ccccc3)C[C@@H](C#N)[C@H]2C1
inactive: [18] 47.5 µM | [1] > 100 µM | [2] > 100 µM | [3] 25.2 µM | [4] > 100 µM | [5] > 100 µM | [6] > 100 µM | [19] > 100 µM | [8] > 100 µM | [9] > 100 µM | [11] > 100 µM | [12] > 100 µM | [13] > 100 µM | [14] > 100 µM | [15] 43.7 µM | [16] > 100 µM | [17] > 100 µM

CC(=O)Oc1ccc2cc(Oc3cc(Cl)c(Cl)cc3Cl)c(=O)oc2c1
inactive: [18] 24.2 µM | [1] 26.2 µM | [2] 16.8 µM | [3] 16 µM | [5] 13.2 µM | [6] 17.3 µM | [19] 24.4 µM | [7] 22.2 µM | [8] 14.9 µM | [9] 24.8 µM | [11] 34.5 µM | [12] 22.2 µM | [13] 15.6 µM | [14] 16.1 µM | [15] 16.7 µM | [16] 13 µM | [17] 22.4 µM

CCCCC(C)(C/C=C/[C@@H]1[C@@H](C(O)CCCCCC(=O)OC)C(=O)C[C@H]1O[Si](C)(C)C(C)(C)C)O[Si](C)(C)C (some centres undefined)
inactive: [18] 42 µM | [1] 77.4 µM | [2] 78.5 µM | [3] 91 µM | [4] > 100 µM | [5] 36.5 µM | [6] > 100 µM | [19] > 100 µM | [8] 81.1 µM | [9] 97.7 µM | [10] 91.8 µM | [11] 86.7 µM | [12] > 100 µM | [13] > 100 µM | [14] 34.9 µM | [15] 23.2 µM | [16] 58.3 µM | [17] > 100 µM

FC(F)(F)c1ccc2nc(Sc3ccc4ccccc4c3)cnc2c1
inactive: [18] 45 µM | [1] > 100 µM | [2] 87.3 µM | [4] 60 µM | [5] 45.8 µM | [6] 74.8 µM | [19] 94 µM | [7] > 100 µM | [8] 46 µM | [9] > 100 µM | [10] 64.9 µM | [11] 51.5 µM | [12] 41.9 µM | [13] 40.5 µM | [15] 37.5 µM | [16] > 100 µM | [17] 65.2 µM

O=C1/C(=C/c2cccc3ccccc23)Cc2ccccc21
inactive: [18] 5.93 µM | [1] 32.8 µM | [2] 32.7 µM | [3] 27.1 µM | [4] 52.2 µM | [5] 62.4 µM | [19] 26.3 µM | [7] 22 µM | [9] 49.2 µM | [10] 22.4 µM | [11] 22.3 µM | [12] 17.1 µM | [13] 20.4 µM | [14] 16.9 µM | [16] 35.9 µM

CCOP(=O)(OCC)C(F)(F)CC1CCCCC1
inactive: [18] > 10 µM | [1] > 10 µM | [2] > 10 µM | [3] > 10 µM | [4] > 10 µM | [5] > 10 µM | [6] > 10 µM | [19] > 10 µM | [7] > 10 µM | [8] > 10 µM | [9] > 10 µM | [10] > 10 µM | [11] > 10 µM | [12] > 10 µM | [13] > 10 µM | [14] > 10 µM | [16] > 10 µM | [17] > 10 µM

COc1cc(C2SCC(=O)N2NC(=O)c2ccc(NC(C)=O)cc2)cc(OC)c1OC (centres undefined)
inactive: [18] > 100 µM | [1] > 100 µM | [2] > 100 µM | [3] > 100 µM | [4] > 100 µM | [5] 35.8 µM | [6] > 100 µM | [19] > 100 µM | [7] > 100 µM | [8] > 100 µM | [9] > 100 µM | [10] > 100 µM | [11] > 100 µM | [12] > 100 µM | [13] > 100 µM | [16] > 100 µM | [17] > 100 µM

CC(C)(C)OC(=O)NC(Cc1ccc(O)cn1)C(=O)O (centres undefined)
inactive: [18] > 100 µM | [1] > 100 µM | [2] > 100 µM | [3] > 100 µM | [4] > 100 µM | [5] > 100 µM | [6] > 100 µM | [19] > 100 µM | [7] > 100 µM | [8] > 100 µM | [9] > 100 µM | [11] > 100 µM | [12] > 100 µM | [13] > 100 µM | [14] > 100 µM | [15] > 100 µM | [16] > 100 µM | [17] > 100 µM

c1ccc2c(-c3csc(-c4c[nH]c5ccccc45)n3)c[nH]c2c1
inactive: [18] > 52.1 µM | [1] > 100 µM | [2] 39.4 µM | [3] > 100 µM | [4] > 100 µM | [5] 3.37 µM | [6] 56.4 µM | [19] > 100 µM | [7] 61.1 µM | [8] > 48.8 µM | [9] 63.8 µM | [10] > 100 µM | [11] > 100 µM | [12] > 100 µM | [13] > 65 µM | [14] > 100 µM | [16] 14.9 µM | [17] 15.4 µM

O=C1CC[C@@H](S(=O)(=O)c2ccccc2)[C@H](/C=C/c2ccccc2)O1
inactive: [1] > 100 µM | [2] > 100 µM | [3] > 100 µM | [5] > 100 µM | [6] > 100 µM | [19] > 100 µM | [8] > 100 µM | [9] > 100 µM | [10] > 100 µM | [11] > 100 µM | [12] > 100 µM | [13] > 100 µM | [15] > 100 µM | [16] > 100 µM | [17] > 100 µM

COc1ccc(/C=C2/N/C(=N\N=C/C(O)C(O)C(O)CO)NC2=O)cc1 (centres undefined)
inactive: [18] 15.9 µM | [2] > 100 µM and 63.7 µM | [4] > 100 µM | [19] > 100 µM | [7] 78.2 µM | [8] > 100 µM | [9] > 100 µM | [13] > 100 µM and 62.4 µM | [17] > 100 µM

O=C(Cn1ccnc1[N+](=O)[O-])c1ccccc1
inactive: [1] > 100 µM | [2] > 100 µM | [3] > 100 µM | [5] > 100 µM | [6] > 100 µM | [19] > 100 µM | [9] > 100 µM | [10] > 100 µM | [11] > 100 µM | [12] > 100 µM | [13] > 100 µM | [15] > 100 µM | [16] > 100 µM | [17] > 100 µM

O=C1CC(c2ccc(O)cc2)C2(O1)C(=O)OC(C(O)CO)C2O (centres undefined)
inactive: [18] > 100 µM | [1] > 100 µM | [2] > 100 µM | [3] > 100 µM | [4] > 100 µM | [5] > 100 µM | [6] > 100 µM | [19] > 100 µM | [7] > 100 µM | [8] > 100 µM | [9] > 100 µM | [10] > 100 µM | [12] > 100 µM | [13] > 100 µM | [14] > 100 µM | [16] > 100 µM | [17] > 100 µM

Cc1cc([N+](=O)[O-])ccc1Sc1c2ccccc2nc2ccccc12
inactive: [1] > 100 µM | [3] 41.4 µM | [5] 32.1 µM | [6] > 100 µM | [19] 39 µM | [8] 22.5 µM | [9] 57 µM | [10] 25.1 µM | [11] 57.8 µM | [12] 33 µM | [13] 23.6 µM | [15] 18.1 µM | [16] 18.5 µM | [17] 39.4 µM

COC(=O)Nc1cc(OCCCOC(C)=O)c2[nH]c(C(=O)OC)cc2c1C[C@H](O)CO
inactive: [18] > 100 µM | [1] > 100 µM | [2] > 100 µM | [3] > 100 µM | [4] > 100 µM | [6] > 100 µM | [19] 72.1 µM | [8] > 100 µM | [9] > 100 µM | [10] > 100 µM | [11] > 100 µM | [12] > 100 µM | [13] > 100 µM | [14] > 100 µM | [15] 2.94 µM | [16] > 100 µM | [17] > 100 µM

Cc1n[nH]c(=O)n1/N=C/c1c[nH]c2ccccc12
inactive: [18] > 100 µM | [1] > 100 µM | [3] > 100 µM | [4] > 100 µM | [5] > 100 µM | [6] > 100 µM | [19] 50.7 µM | [8] > 100 µM | [10] > 100 µM | [11] > 100 µM | [12] 80.5 µM | [13] > 100 µM | [14] > 100 µM | [15] > 100 µM | [16] > 100 µM | [17] > 100 µM
